pIC50: −log10 of the molar value.

In assay [1] the test system is HCT116-WT cells. Nature of the assay: Inhibitory activity against cell proliferation (CellTiter Glo, 6 days), HCT116-WT. The class given is cell-based. The settings on record: 144 h, HCT116-WT cells, 6 days, CellTiter Glo; read-out: HCT116-WT IC50. In outline:
(§1)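 Viability is measured by CellTiter Glo luminescence on day 7, following a 6-day treatment with compounds serially diluted 4-fold over 8 points from 10000 nM. Both lines are plated at 250 cells per well and cultured overnight beforehand.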

The target of assay [2] is PRMT5-MTA (Homo sapiens, UniProt O14744). Nature of the assay: Enzymatic inhibitory activity against PRMT5-MTA (AlphaScreen). In kind it is biochemical. The settings on record: read-out: IC50. Summed up: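 PRMT5/[…] (1 nM) was preincubated for 30 min at room temperature with 1 µM […] and 2.5 µM SAM, then exposed to compound (10-point, 3-fold from 1000 nM) for 15 min at 23 °C. Histone H4 substrate (5 nM) was added and reacted for 45 min at 23 °C. Symmetric dimethyl-R3 H4 was detected by AlphaScreen and IC50 calculated.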
PRMT5-MTA, sequence (O14744 whole entry): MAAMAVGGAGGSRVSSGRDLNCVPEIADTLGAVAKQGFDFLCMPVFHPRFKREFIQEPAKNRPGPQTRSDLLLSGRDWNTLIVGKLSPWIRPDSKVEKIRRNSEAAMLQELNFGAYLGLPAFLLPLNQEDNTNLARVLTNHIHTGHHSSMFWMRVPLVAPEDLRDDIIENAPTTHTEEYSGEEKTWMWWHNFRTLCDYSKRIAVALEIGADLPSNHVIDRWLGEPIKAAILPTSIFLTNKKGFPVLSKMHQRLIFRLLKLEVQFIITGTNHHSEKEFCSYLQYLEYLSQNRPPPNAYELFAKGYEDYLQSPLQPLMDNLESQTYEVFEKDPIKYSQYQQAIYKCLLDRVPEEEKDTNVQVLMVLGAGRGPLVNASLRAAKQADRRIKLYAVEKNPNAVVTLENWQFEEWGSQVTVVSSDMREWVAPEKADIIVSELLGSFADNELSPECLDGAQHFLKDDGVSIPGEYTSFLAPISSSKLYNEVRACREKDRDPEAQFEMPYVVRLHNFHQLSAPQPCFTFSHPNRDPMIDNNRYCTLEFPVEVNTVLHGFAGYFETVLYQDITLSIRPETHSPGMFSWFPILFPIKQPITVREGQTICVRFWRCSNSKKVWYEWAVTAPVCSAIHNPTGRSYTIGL
PRMT5-MTA, sequence (Q9BQA1 whole entry partner): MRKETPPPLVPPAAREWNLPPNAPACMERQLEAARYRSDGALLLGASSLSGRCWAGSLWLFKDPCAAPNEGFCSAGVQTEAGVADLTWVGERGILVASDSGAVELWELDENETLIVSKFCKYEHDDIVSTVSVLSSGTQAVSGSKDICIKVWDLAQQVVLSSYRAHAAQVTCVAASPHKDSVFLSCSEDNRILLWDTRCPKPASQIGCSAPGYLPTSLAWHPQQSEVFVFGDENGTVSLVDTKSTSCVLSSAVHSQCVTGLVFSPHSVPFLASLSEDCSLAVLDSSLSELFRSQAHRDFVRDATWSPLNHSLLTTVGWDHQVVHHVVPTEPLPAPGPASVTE

Assay [3] deals with HCT116 MTAP KO cells. Nature of the assay: Inhibitory activity against cell proliferation (CellTiter Glo, 6 days), HCT116 MTAP KO. The class given is cell-based. The settings on record: for pIC50: Homo sapiens, HCT-116, 144 h, HCT116 MTAP KO cells, 6 days, CellTiter Glo, read-out: HCT116 MTAP KO IC50; for Selectivity HCT 116-WT/ HCT116 MTAP KO: ratio of IC50 HCT116-WT / HCT116 MTAP KO. Summed up:
as §1
For orientation: In ATP-based viability assays light output follows the ATP content of the culture.

For orientation: pIC50 means the IC50 on a negative log10 scale, so that one unit is a factor of ten. For `Cc1cc2cc(C(=O)N(Cc3ccc(C(F)(F)F)cn3)N(C)c3ncc(C#N)cn3)ccc2nc1N` [Example 58, 2-amino-N'-(5-cyanopyrimidin-2-yl)-N',3-dimethyl-N-((5-(trifluoromethyl)pyridin-2-yl)methyl)quinoline-6-carbohydrazide], the negative logarithm of the IC50 (pIC50) was 5.50 in assay [1], 8.40 in assay [2] and 6.68 in assay [3]. Besides, the “Selectivity HCT 116-WT/ HCT116 MTAP KO” value in assay [3] came out at 14.92.

`Cc1cc2cc(C(=O)N(Cc3ccc(C(F)(F)F)cn3)N3CCc4cccnc43)ccc2nc1N` [Example 22, 2-amino-N-(2,3-dihydro-1H-pyrrolo[2,3-b]pyridin-1-yl)-3-methyl-N-((5-(trifluoromethy 1)pyridin-2-yl)methyl)quinoline-6-carboxamide]: the results for the negative logarithm of the IC50 (pIC50) in assay [1], in assay [2] and in assay [3] were 5.64, 8.37 and 6.89, respectively. The “Selectivity HCT 116-WT/ HCT116 MTAP KO” value in assay [3] is given as 17.78.

As for `Cc1cc2nc(N)c3cnn(C)c3c2cc1C(=O)N1CC(C)CN1c1cncc(F)c1` (stereo not shown) [Example 387, (4-amino-1,7-dimethyl-1H-pyrazolo[4,3-c]quinolin-8-yl)(2-(5-fluoropyridin-3-yl)-4-methylpyrazolidin-1-yl)methanone], the results for the pIC50 in assay [1], in assay [2] and in assay [3] were 5.61, 8.43 and 7.05, respectively. Also, the “Selectivity HCT 116-WT/ HCT116 MTAP KO” value in assay [3] is reported as 27.40.

For `Cn1ncc2c(N)nc3cc(Cl)c(C(=O)N4CC5(CC5)CN4c4ncc(Br)cc4F)cc3c21` [Example 345, (4-amino-7-chloro-1-methyl-1H-pyrazolo [4,3-c]quinolin-8-yl)(6-(5-bromo-3-fluor opyridin-2-yl)-5,6-diazaspiro[2.4]heptan-5-yl)methanone], the negative-log IC50 (pIC50) in assay [1] was 6.11; in assay [2] it was 8.36; in assay [3], 7.36. Moreover, the “Selectivity HCT 116-WT/ HCT116 MTAP KO” value in assay [3] is listed as 17.57.

For `CCc1ncsc1-c1ccc(CN(C(=O)c2ccc3nc(N)c(C)cc3c2)N(C)c2ncccn2)nc1` [Example 241, 2-amino-N-((5-(4-ethylthiazol-5-yl)pyridin-2-yl)methyl)-N',3-dimethyl-N'-(pyrimidin-2-yl)quinoline-6-carbohydrazide], the negative logarithm of the IC50 (pIC50) in assay [1] is 6.17; in assay [2] it was 8.14; in assay [3], 7.43. The “Selectivity HCT 116-WT/ HCT116 MTAP KO” value in assay [3] is 18.27.

For `Cc1cc2cc(C(=O)N(Cc3ccc(C(F)(F)F)cn3)N(C)c3ncc4cc[nH]c4n3)ccc2nc1N` [Example 119, 2-amino-N',3-dimethyl-N'-(7H-pyrrolo[2,3-d]pyrimidin-2-yl)-N-((5-(trifluoromethyl)pyridin-2-yl)methyl)quinoline-6-carbohydrazide], the results for the pIC50 in assay [1], in assay [2] and in assay [3] were 5.74, 8.64 and 7.05, respectively. Also, in assay [3], the “Selectivity HCT 116-WT/ HCT116 MTAP KO” value is 20.13.

As for `Cc1cc2nc(N)c3cnn(C)c3c2cc1C(=O)N1CC(C)CN1c1ncc(-c2cncs2)cc1F` (stereo not shown) [Example 481, (4-amino-1,7-dimethyl-1H-pyrazolo[4,3-c]quinolin-8-yl)(2-(3-fluoro-5-(thiazol-5-yl)pyridin-2-yl)-4-methylpyrazolidin-1-yl)methanone], the negative-log IC50 (pIC50) was 6.15 in assay [1], 8.43 in assay [2] and 7.82 in assay [3]. In addition, the “Selectivity HCT 116-WT/ HCT116 MTAP KO” value in assay [3] amounted to 47.20.

For `Cc1cc2nc(N)c3cnn(C)c3c2cc1C(=O)N1CCCN1c1ncccc1F` [Example 342, (4-amino-1,7-dimethyl-1H-pyrazolo[4,3-c]quinolin-8-yl)(2-(3-fluoropyridin-2-yl)pyrazolidin-1-yl)methanone], the pIC50 in assay [1] is 5.17; in assay [2], 8.42; in assay [3], 7.00. In assay [3], the “Selectivity HCT 116-WT/ HCT116 MTAP KO” value amounted to 67.95.

Regarding `CCc1cc2cc(C(=O)N(Cc3ccc(C(F)(F)F)cn3)N(C)c3ncccn3)ccc2nc1N` [Example 305, 2-amino-3-ethyl-N'-methyl-N'-(pyrimidin-2-yl)-iN-((5-(trifluoromethyl)pyridin-2-yl)methyl)quinoline-6-carbohydrazide], the values for the pIC50 in assay [1], in assay [2] and in assay [3] were 5.78, 8.64 and 7.07, respectively. Also, the “Selectivity HCT 116-WT/ HCT116 MTAP KO” value in assay [3] came to 19.60.

As to `Cc1cc2nc(N)c3cnn(C)c3c2cc1C(=O)N(C)N1CCc2cccnc21` [Example 112, 4-amino-N-(2,3-dihydro-1H-pyrrolo[2,3-b]pyridin-1-yl)-N,1,7-trimethyl-1H-pyrazolo[4,3-c]quinoline-8-carboxamide], the negative-log IC50 (pIC50) is less than 5.00 in assay [1], 8.72 in assay [2] and 6.44 in assay [3].

With `Cc1cc2nc(N)c3cnn(C)c3c2cc1C(=O)N1CC(C)CN1c1ccc(F)cn1` (stereo not shown) [Example 346, (4-amino-1,7-dimethyl-1H-pyrazolo[4,3-c]quinolin-8-yl)(2-(5-fluoropyridin-2-yl)-4-methylpyrazolidin-1-yl)methanone], the figures for the pIC50 in assay [1], in assay [2] and in assay [3] were 5.66, 8.44 and 7.28, respectively. Further, the “Selectivity HCT 116-WT/ HCT116 MTAP KO” value in assay [3] turned out to be 41.25.

`CC(C)c1cc2cc(C(=O)N(Cc3ccc(C(F)(F)F)cn3)N(C)c3ncccn3)ccc2nc1N` [Example 26, 2-amino-3-isopropyl-N'-methyl-N'-(pyrimidin-2-yl)-N-((5-(trifluoromethyl)pyridin-2-yl)methyl)quinoline-6-carbohydrazide]: the pIC50 is 5.04 in assay [1], 8.62 in assay [2] and 6.35 in assay [3]. The “Selectivity HCT 116-WT/ HCT116 MTAP KO” value in assay [3] turned out to be 20.73.

On to `Cc1cc2nc(N)c3cnn(C)c3c2cc1C(=O)N1CC(C)CN1c1ncccc1Br` (stereo not shown) [Example 370, (4-amino-1,7-dimethyl-1H-pyrazolo[4,3-c]quinolin-8-yl)(2-(3-bromopyridin-2-yl) -4-methylpyrazolidin-1-yl)methanone], for which the pIC50 in assay [1] was 5.46; in assay [2] it was 8.24; in assay [3], 6.93. The “Selectivity HCT 116-WT/ HCT116 MTAP KO” value in assay [3] was 29.42.

Take `Cc1cc2cc(C(=O)N(Cc3ccc(C(F)(F)F)cn3)N(c3nccc4nccnc34)C3CC3)ccc2nc1N` [Example 65, 2-amino-N'-cyclopropyl-3-methyl-N'-(pyrido[3,4-b]pyrazin-5-yl)-N-((5-(trifluoromethyl)pyridin-2-yl)methyl)quinoline-6-carbohydrazide]: the negative-log IC50 (pIC50) was 5.67 in assay [1], 8.40 in assay [2] and 7.32 in assay [3]. Further, the “Selectivity HCT 116-WT/ HCT116 MTAP KO” value in assay [3] was found to be 44.77.

For `Cc1ncc(-c2ccc(CN(C(=O)c3ccc4nc(N)c(C)cc4c3)N(C)c3ncccn3)nc2)cn1` [Example 180, 2-amino-N',3-dimethyl-N-((5-(2-methylpyrimidin-5-yl)pyridin-2-yl)methyl)-N'-(pyrimidin-2-yl)quinoline-6-carbohydrazide], the pIC50 in assay [1] is 5.73; in assay [2] it was 8.49; in assay [3] it was 7.39. In assay [3], the “Selectivity HCT 116-WT/ HCT116 MTAP KO” value came out at 45.73.

For `Cc1ccnc(N(C)N(Cc2ccc(C(F)(F)F)cn2)C(=O)c2ccc3nc(N)c(C)cc3c2)n1` [Example 49, 2-amino-N',3-dimethyl-N'-(4-methylpyrimidin-2-yl)-N-((5-(trifluoromethyl)pyridin-2-yl)methyl)quinoline-6-carbohydrazide], the negative logarithm of the IC50 (pIC50) in assay [1] was 5.75; in assay [2], 8.66; in assay [3] it was 7.10. Moreover, the “Selectivity HCT 116-WT/ HCT116 MTAP KO” value in assay [3] is reported as 22.18.

Consider `Cc1cc2cc(C(=O)N(Cc3ccc(C(F)(F)F)cn3)N(C)c3nccc(C#N)n3)ccc2nc1N` [Example 110, 2-amino-N'-(4-cyanopyrimidin-2-yl)-N',3-dimethyl-N-((5-(trifluoromethyl)pyridin-2-yl)methyl)quinoline-6-carbohydrazide], for which the values for the pIC50 in assay [1], in assay [2] and in assay [3] were 5.57, 8.60 and 6.76, respectively. Further, the “Selectivity HCT 116-WT/ HCT116 MTAP KO” value in assay [3] worked out at 15.71.

As to `[2H]C([2H])([2H])c1cc2cc(C(=O)N(Cc3ccc(-c4cncs4)cn3)N(C)c3ncccn3)ccc2nc1N` [Example 318, 2-amino-N'-methyl-3-(methyl-D3)-N'-(pyrimidin-2-yl)-N-((5-(thiazol-5-yl)pyridin-2-yl)methyl)quinoline-6-carbohydrazide], the pIC50 in assay [1] is 6.47; in assay [2], 8.20; in assay [3], 7.80. Moreover, in assay [3], the “Selectivity HCT 116-WT/ HCT116 MTAP KO” value stood at 21.13.

On to `Cc1cc2nc(N)c3cnn(C)c3c2cc1C(=O)N1CC(C(F)(F)F)CN1c1cccc(F)n1` (stereo not shown) [Example 352, (4-amino-1,7-dimethyl-1H-pyrazolo[4,3-c]quinolin-8-yl)(2-(6-fluoropyridin-2-yl)-4-(trifluoromethyl)pyrazolidin-1-yl)meth anone], for which the pIC50 is 5.64 in assay [1], 7.90 in assay [2] and 7.11 in assay [3]. In addition, the “Selectivity HCT 116-WT/ HCT116 MTAP KO” value in assay [3] was determined as 29.42.

Consider `Cc1cc2nc(N)c3cnn(C)c3c2cc1C(=O)N1CC(C)CN1c1ccccn1` (stereo not shown) [Example 368, (4-amino-1,7-dimethyl-1H-pyrazolo[4,3-c]quinolin-8-yl)(4-methyl-2-(pyridin-2-yl)pyrazolidin-1-yl)methanone], for which the figures for the negative-log IC50 (pIC50) in assay [1], in assay [2] and in assay [3] were 5.54, 8.33 and 7.43, respectively. In addition, in assay [3], the “Selectivity HCT 116-WT/ HCT116 MTAP KO” value came to 78.51.
